Values joined by “and” are separate entries in the source; they are usually repeats but may differ in a detail not shown here. Equal values may be shown once.
Tests used:
RET = RET (Homo sapiens, UniProt P07949); assay: Biochemical kinase selectivity assay, RET; details: in vitro kinase assay; read-out: RET IC50 (nM) ± SD
Molm14 par = assay: Cell proliferation (CellTiter-Glo, 48 h), Molm14 par; type: cell-based; details: Homo sapiens, MOLM-14
From the text: (§1) Stable BaF3 populations expressing activated FLT3 were generated by retroviral spinfection with the appropriate mutated plasmid followed by selection and growth factor withdrawal as previously described. The BaF3 cell line was originally obtained from the laboratory of Charles Sawyers and has not been authenticated. MV411 and Molm14 cells were obtained from the laboratory of Scott Kogan and authenticated by Promega STR analysis in June 2013. All cell lines were mycoplasma-free. Cells were incubated with compounds for 48 hours and proliferation was assessed using CellTiter-Glo (Promega; Madison, WI) according to the manufacturer’s recommendation on a SpectraMax M3 microplate reader using SpectraMax Software (Molecular Devices; Sunnyvale, CA). All cell viability data shown is reflective of experiments performed a minimum of three times. […]
(§2) S13. Cell Cultures: Stable BaF3 populations expressing activated FLT3 were generated by retroviral spinfection with the appropriate mutated plasmid followed by selection and growth factor withdrawal as previously described .4 The BaF3 cell line was originally obtained from the laboratory of Charles Sawyers and has not been authenticated. MV411 and Molm14 cells were obtained from the laboratory of Scott Kogan and authenticated by Promega STR analysis in June
(§3) 2013. All cell lines were mycoplasma -free. Cells were incubated with compounds for 48 hours and proliferation was assessed using CellTiter -Glo (Promega; Madison, WI) according to the manufacturer’s recommendation on a SpectraMax M3 microplate reader using SpectraMax Software (Molecular Devices; Sunnyvale, CA). All cell viability data shown is reflective of experiments performed a minimum of three times.

Molm14^F691L = assay: Cell proliferation (CellTiter-Glo, 48 h), Molm14 F691L; type: cell-based; details: for GI50: Homo sapiens, MOLM-14, Molm14^F691L, 48 hours
From the text: as §1, §2, §3

FLT3D835Y = target: T1, FLT3D835Y (Homo sapiens, UniProt P36888, D835Y); assay: Biochemical kinase selectivity assay, FLT3 D835Y; details: in vitro kinase assay; read-out: FLT3D835Y IC50 (nM) ± SD
T1 construct: the biochemical assay only contains the kinase domain with a single, D835Y point mutation
T1 sequence (P36888 610-943 D835Y limits assumed): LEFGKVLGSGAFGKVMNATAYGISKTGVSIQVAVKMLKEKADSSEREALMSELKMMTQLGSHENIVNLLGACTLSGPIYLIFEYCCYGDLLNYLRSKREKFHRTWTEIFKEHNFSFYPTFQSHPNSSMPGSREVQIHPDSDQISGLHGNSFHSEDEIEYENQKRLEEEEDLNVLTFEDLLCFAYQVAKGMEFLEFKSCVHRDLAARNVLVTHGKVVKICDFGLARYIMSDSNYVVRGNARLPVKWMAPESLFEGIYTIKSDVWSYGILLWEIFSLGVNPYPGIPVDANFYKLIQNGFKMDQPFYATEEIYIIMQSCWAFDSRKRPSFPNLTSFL
Experimental: Kinase activity was measured in a microfluidics assay that monitors the separation of a phosphorylated product from substrate[31],[32]. The assay was run using a 12-sipper chip on a Caliper EZ Reader II (PerkinElmer®, Walthman, USA) with separation buffer (100 mM HEPES, 10 mM EDTA, 0.015% Brij-35, 0.1% CR-3 [PerkinElmer®, Walthman, USA]). In 96-well polypropylene plates (Greiner, Frickenhausen, Germany) compound stocks (20 mM in DMSO) were diluted into kinase buffer (50 mM HEPES, 0.075% Brij-35, 0.1% Tween 20, 2 mM DTT, 10 mM MgCl2, and 0.02% NaN3) in 12-point ½log dilutions (2 mM–6.32 nM). After, 1 μL was transferred into a 384-well polypropylene assay plate (Greiner, Frickenhausen, Germany). […] Percent inhibition was measured for each well comparing starting peptide to phosphorylated product peaks relative to the baseline. […] IC50 values were generated in duplicate and error was calculated from the standard deviation between values.
S10. Biochemical Inhibition Assay:1,2 Kinase activity was measured in a microfluidics assay that monitors the separation of a phosphorylated product from substrate. The assay was run using a 12-sipper chip on a Caliper EZ Reader II (PerkinElmer®, Walthman, USA) with separation buffer (100 mM HEPES, 10 mM EDTA, 0.015% Brij-35, 0.1% CR-3 [PerkinElmer®, Walthman, USA]). […]

MV4–11 AML cells = assay: Cell proliferation (CellTiter-Glo, 48 h), MV4-11; type: cell-based; details: Homo sapiens; MV4–11, 48 hours
From the text: as §1, §2, §3

Ba/F3 FLT3-ITD = assay: Cell proliferation (CellTiter-Glo, 48 h), Ba/F3 FLT3-ITD; type: cell-based
From the text: as §1, §2, §3

Sequence of RET (P07949 29-1114, species assumed): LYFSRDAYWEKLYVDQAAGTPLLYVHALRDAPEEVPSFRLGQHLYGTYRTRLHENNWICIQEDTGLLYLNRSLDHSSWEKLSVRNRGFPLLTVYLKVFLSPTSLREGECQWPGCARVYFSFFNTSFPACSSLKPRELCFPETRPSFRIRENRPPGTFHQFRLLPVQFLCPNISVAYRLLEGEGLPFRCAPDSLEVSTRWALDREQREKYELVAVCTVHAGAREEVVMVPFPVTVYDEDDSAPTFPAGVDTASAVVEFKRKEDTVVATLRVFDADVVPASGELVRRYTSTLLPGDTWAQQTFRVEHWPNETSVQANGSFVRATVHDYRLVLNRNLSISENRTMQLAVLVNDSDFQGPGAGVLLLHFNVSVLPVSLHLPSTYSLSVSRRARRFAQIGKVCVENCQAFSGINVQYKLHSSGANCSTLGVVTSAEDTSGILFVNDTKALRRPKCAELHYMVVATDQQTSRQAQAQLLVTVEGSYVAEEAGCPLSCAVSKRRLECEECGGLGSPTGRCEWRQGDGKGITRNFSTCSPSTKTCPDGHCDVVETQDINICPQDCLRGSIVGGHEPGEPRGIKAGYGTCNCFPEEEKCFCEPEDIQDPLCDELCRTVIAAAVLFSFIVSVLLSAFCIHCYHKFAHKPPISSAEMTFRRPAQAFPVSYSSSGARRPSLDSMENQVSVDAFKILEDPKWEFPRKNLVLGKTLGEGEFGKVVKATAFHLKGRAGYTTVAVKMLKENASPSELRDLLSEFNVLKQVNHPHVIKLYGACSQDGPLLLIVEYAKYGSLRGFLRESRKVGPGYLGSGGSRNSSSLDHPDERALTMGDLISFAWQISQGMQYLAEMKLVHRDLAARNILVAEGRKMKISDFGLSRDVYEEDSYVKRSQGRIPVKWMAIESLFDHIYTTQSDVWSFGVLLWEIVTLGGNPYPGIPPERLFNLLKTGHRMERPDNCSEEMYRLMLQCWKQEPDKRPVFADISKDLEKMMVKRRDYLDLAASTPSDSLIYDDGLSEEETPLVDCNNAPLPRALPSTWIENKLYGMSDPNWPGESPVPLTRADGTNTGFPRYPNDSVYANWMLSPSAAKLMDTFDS

Compound | IC50 (RET) | GI50 (Molm14 par) | GI50 (Molm14^F691L) | fold reduction in cellular activity against Molm14^F691L (Molm14^F691L; gatekeeper mutation, relative to the parental FLT3-ITD cells) | IC50 (FLT3D835Y) | GI50 (MV4–11 AML cells) | GI50 (Ba/F3 FLT3-ITD)
Cn1nc(C(C)(C)C)cc1NC(=O)Cc1ccc(Nc2cc(Nc3ccc(S(C)(=O)=O)cc3)ncn2)cc1 [13a, 2-(4-(6-(4-(Methylsulfonyl)phenylamino)pyrimidin-4-ylamino)phenyl)-N-(3-tert-butyl-1-methyl-1H-pyrazol-5-yl)acetamide] | 4710 ± 342 nM | 0.0244 µM | 1.34 µM | ~ 10 fold | 72.5 nM and 72 nM | 0.0099 µM | 0.131 µM
CC(C)(C)c1cc(NC(=O)Cc2ccc(Nc3cc(Nc4ccc(S(C)(=O)=O)cc4)ncn3)cc2)no1 [13k, 2-(4-(6-(4-(Methylsulfonyl)phenylamino)pyrimidin-4-ylamino)phenyl)-N-(5-tert-butylisoxazol-3-yl)acetamide] | 1660 nM | 0.0198 µM | 2.14 µM | – | 13700 ± 234 nM | 0.0072 µM | 0.0405 µM
